According to PubChem BioAssay AID330 (DTP/NCI, 2004):
“And” between values parts separate entries of the source, which are not always exact repeats. Equal values may be shown once. Inconclusive results and toxic doses are left out.

Test system: P388 leukemia ip, CD2F1 mice, survival T/C
Test: NCI In Vivo Anticancer Drug Screen. Data for tumor model P388 Leukemia (intraperitoneal) in CD2F1 (CDF1) mice
Conditions: endpoint: median survival time, higher = longer survival
How it was run: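 Mice carrying the transplanted tumor received test compound or vehicle. Survival was recorded in each group, and the value is the treated-group measurement divided by that of the vehicle-treated control group.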

[1] = dose: 25.0 mg/kg/injection, schedule: Q01DX005 (ip), vehicle: Klucel (hydroxypropylcellulose) (HPC)
[2] = dose: 50.0 mg/kg/injection, schedule: Q01DX005 (ip), vehicle: Klucel (hydroxypropylcellulose) (HPC)

`[CH3][Sn]([CH3])([CH3])[N]=C=[N][Sn]([CH3])([CH3])[CH3]` was tested, and the T/C (dose: 0.4 mg/kg/injection, schedule: Q01DX005 (ip), vehicle: saline) was 100 % of control and the T/C (dose: 0.8 mg/kg/injection, schedule: Q01DX005 (ip), vehicle: saline) was 101 % of control.
`O=C(O)CSCSCC(=O)O` was tested, and the T/C (dose: 100.0 mg/kg/injection, schedule: Q04DX003 (ip), vehicle: saline) was 100 % of control and the T/C (dose: 200.0 mg/kg/injection, schedule: Q04DX003 (ip), vehicle: saline) was 104 % of control.
With `N#C/C(=N\Nc1ccccc1)C(N)=S` the T/C (dose: 12.5 mg/kg/injection, schedule: Q01DX009 (ip), vehicle: other) was 109 % of control, the T/C (dose: 25.0 mg/kg/injection, schedule: Q01DX009 (ip), vehicle: other) was 93 % of control and the T/C (dose: 50.0 mg/kg/injection, schedule: Q01DX009 (ip), vehicle: other) was 91 % of control.
For `O=C(Nc1ccc(N=C(c2ccccc2)N2CCOCC2)cc1)c1ccc(C(=O)Nc2ccc(N=C(c3ccccc3)N3CCOCC3)cc2)cc1`, the T/C [1] was 101 % of control, the T/C [2] was 101 % of control and the T/C (dose: 100.0 mg/kg/injection, schedule: Q01DX005 (ip), vehicle: Klucel (hydroxypropylcellulose) (HPC)) was 93 % of control. For the same molecule, the T/C (dose: 200.0 mg/kg/injection, schedule: Q01DX005 (ip), vehicle: Klucel (hydroxypropylcellulose) (HPC)) was 96 % of control.
With `OCC1OC(n2ncc3nccnc32)C(O)C1O` (stereo unspecified) the T/C (dose: 32.0 mg/kg/injection, schedule: Q01DX002 (ip), vehicle: saline with Tween-80) was 98 % of control and 114 % of control, the T/C (dose: 64.0 mg/kg/injection, schedule: Q01DX002 (ip), vehicle: saline with Tween-80) was 98 % of control and 109 % of control and the T/C (dose: 128.0 mg/kg/injection, schedule: Q01DX002 (ip), vehicle: saline with Tween-80) was 112 % of control and 114 % of control.
In the case of `CCN(CC)CCCNC(=O)Cc1ccc2c(c1)C(=O)c1ccccc1C2=O`, the T/C (dose: 25.0 mg/kg/injection, schedule: Q01DX005 (ip), vehicle: water) is reported as 106 % of control, the T/C (dose: 50.0 mg/kg/injection, schedule: Q01DX005 (ip), vehicle: water) is reported as 108 % of control and the T/C (dose: 100.0 mg/kg/injection, schedule: Q04DX002 (ip), vehicle: water) is reported as 97 % of control.
For `O=C(CSc1nccc(=O)[nH]1)c1ccccc1`, the T/C (dose: 50.0 mg/kg/injection, schedule: Q01DX005 (ip), vehicle: saline with Tween-80) was 103 % of control, the T/C (dose: 100.0 mg/kg/injection, schedule: Q01DX005 (ip), vehicle: saline with Tween-80) was 103 % of control and the T/C (dose: 200.0 mg/kg/injection, schedule: Q01DX005 (ip), vehicle: saline with Tween-80) was 100 % of control.
For `C=C(C)C1CC2(C)C(C)C(OC(=O)/C(C)=C\C)CCC2C(O)C1=O` (stereo unspecified), the T/C (dose: 15.0 mg/kg/injection, schedule: Q04DX002 (ip), vehicle: distilled water + alcohol) was 96 % of control, the T/C (dose: 30.0 mg/kg/injection, schedule: Q04DX002 (ip), vehicle: distilled water + alcohol) was 104 % of control and the T/C (dose: 57.5 mg/kg/injection, schedule: Q04DX002 (ip), vehicle: distilled water + alcohol) was 107 % of control.
`O=NN(CCCl)C(=O)NCCSSCCNC(=O)N(CCCl)N=O` (tested in a mixture with another compound) was tested, and the T/C (dose: 12.5 mg/kg/injection, schedule: Q01DX005 (ip), vehicle: Klucel (hydroxypropylcellulose) (HPC)) was 179 % of control and 211 % of control, the T/C [1] was 224 % of control and the T/C [2] was 120 % of control and 201 % of control.
For `O=C1CCCCC1C(O)c1c(Cl)cccc1Cl` (stereo unspecified), the T/C (dose: 50.0 mg/kg/injection, schedule: Q01DX009 (ip), vehicle: saline with Tween-80) was 99 % of control, the T/C (dose: 100.0 mg/kg/injection, schedule: Q01DX009 (ip), vehicle: saline with Tween-80) was 99 % of control and the T/C (dose: 200.0 mg/kg/injection, schedule: Q01DX009 (ip), vehicle: saline with Tween-80) was 100 % of control.
For `CN(C)C(=O)c1cc(N2CC2)c([N+](=O)[O-])cc1[N+](=O)[O-]`, the T/C (dose: 1.56 mg/kg/injection, schedule: Q01DX009 (ip), vehicle: saline with Tween-80) was 98 % of control and 117 % of control, the T/C (dose: 3.12 mg/kg/injection, schedule: Q01DX009 (ip), vehicle: saline with Tween-80) was 115 % of control and the T/C (dose: 6.25 mg/kg/injection, schedule: Q01DX009 (ip), vehicle: saline with Tween-80) was 100 % of control and 101 % of control and 113 % of control. The T/C (dose: 25.0 mg/kg/injection, schedule: Q01DX009 (ip), vehicle: saline with Tween-80) was 110 % of control.
With `CN(CCO)c1ncnc2c1cnn2C` the T/C (dose: 50.0 mg/kg/injection, schedule: Q01DX005 (ip), vehicle: saline) was 100 % of control, the T/C (dose: 100.0 mg/kg/injection, schedule: Q01DX005 (ip), vehicle: saline) was 101 % of control and the T/C (dose: 200.0 mg/kg/injection, schedule: Q01DX005 (ip), vehicle: saline) was 100 % of control.
